Test results as given in US20260265208A1, “TETRALINE, PHENYLCYCLOBUTANE AND PHENYLCYCLOPENTANE ANALOGS AS RXFP1 AGONISTS” (BRISTOL-MYERS SQUIBB COMPANY, priority 2021, published 2026).

Tested on: not given
Experiment: not given
Settings: intravenous (IV) formulation; cited from earlier work

Question: Which first-phase pharmacokinetic half-life does the source give for Serelaxin here?
Answer: 5.4 min

Molecular target: T1, human RXFP1 (Homo sapiens, UniProt Q9HBX9)
T1 construct: expressed in transfected cells
T1 sequence (Q9HBX9 1-757): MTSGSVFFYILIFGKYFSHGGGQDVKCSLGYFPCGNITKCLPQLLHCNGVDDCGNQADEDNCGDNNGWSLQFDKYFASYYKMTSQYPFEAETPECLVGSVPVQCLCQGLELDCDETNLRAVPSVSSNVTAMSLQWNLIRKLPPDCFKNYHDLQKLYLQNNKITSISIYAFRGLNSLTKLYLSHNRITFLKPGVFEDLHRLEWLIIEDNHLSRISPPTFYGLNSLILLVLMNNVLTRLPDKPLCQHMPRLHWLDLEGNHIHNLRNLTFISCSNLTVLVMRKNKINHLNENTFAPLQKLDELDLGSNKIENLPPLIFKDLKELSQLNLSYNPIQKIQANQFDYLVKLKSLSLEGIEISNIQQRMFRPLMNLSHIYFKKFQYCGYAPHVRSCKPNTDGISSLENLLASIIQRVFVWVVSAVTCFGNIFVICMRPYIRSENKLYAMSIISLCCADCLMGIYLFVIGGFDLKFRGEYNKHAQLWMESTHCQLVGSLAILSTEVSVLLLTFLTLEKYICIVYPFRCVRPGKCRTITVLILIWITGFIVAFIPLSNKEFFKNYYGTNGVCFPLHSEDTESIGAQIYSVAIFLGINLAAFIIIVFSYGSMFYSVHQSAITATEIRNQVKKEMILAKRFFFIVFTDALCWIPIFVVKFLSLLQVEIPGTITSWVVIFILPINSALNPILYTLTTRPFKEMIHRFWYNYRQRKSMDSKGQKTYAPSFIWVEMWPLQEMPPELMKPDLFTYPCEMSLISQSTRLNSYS
Experiment: hRXFP1 HEK293 cAMP assay (HTRF)
Assay type: cell-based
Settings: HEK293 cells stably expressing human RXFP1; phenylcyclobutane examples
Experimental: RXFP1 Cyclic Adenosine Monophosphate (cAMP) Assays. Human embryonic kidney cells 293 (HEK293) cells and HEK293 cells stably expressing human RXFP1, were cultured in MEM medium supplemented with 10% qualified FBS, and 300 μg/ml hygromycin (Life Technologies). Cells were dissociated and suspended in assay buffer. The assay buffer was HBSS buffer (with calcium and magnesium) containing 20 mM HEPES, 0.05% BSA, and 0.5 mM IBMX. Cells (3000 cells per well, except 1500 cell per well for HEK293 cells stably expressing human RXFP1) were added to 384-well Proxiplates (Perkin-Elmer). Cells were immediately treated with test compounds in DMSO (2% final) at final concentrations in the range of 0.010 nM to 50 μM. Cells were incubated for 30 min at room temperature. The level of intracellular cAMP was determined using the HTRF HiRange cAMP assay reagent kit (Cisbio) according to manufacturer's instructions. Solutions of cryptate conjugated anti-cAMP and d2 fluorophore-labelled cAMP were made in a supplied lysis buffer separately. Upon completion of the reaction, the cells were lysed with equal volume of the d2-cAMP solution and anti-cAMP solution. After a 1 h room temperature incubation, time-resolved fluorescence intensity was measured using the Envision (Perkin-Elmer) at 400 nm excitation and dual emission at 590 nm and 665 nm. A calibration curve was constructed with an external cAMP standard at concentrations ranging from 2.7 μM to 0.1 μM by plotting the fluorescent intensity ratio from 665 nm emission to the intensity from the 590 nm emission against cAMP concentrations. The potency and activity of a compound to […] cAMP production was then determined by fitting to a 4-parametric logistic equation from a plot of cAMP level versus compound concentrations.
The examples disclosed below were tested in the human RXFP1 (hRXFP1) HEK293 cAMP assay described above and found to have agonist activity. Tables 1-3, lists EC50 values in the hRXFP1 HEK293 cAMP assay measured for the examples.

Question: For COc1ccc(-c2cc(C(=O)O)ccc2F)cc1C(=O)Nc1cc2c(cc1C(=O)Nc1ccc(F)c(C(F)(F)F)c1)CC2 [Example 21], which EC50 is on record?
Answer: 2.4 µM

Question: With COc1ccc(-c2cc(C(NC(=O)C3CCOCC3)C(=O)O)ccc2F)cc1C(=O)Nc1cc2c(cc1C(=O)Nc1ccc(F)c(C(F)(F)F)c1)CC2 (stereo not drawn) [Example 22, 2-(6-fluoro-3′-((4-((4-fluoro-3-(trifluoromethyl)phenyl)carbamoyl)bicyclo[4.2.0]octa-1,3,5-trien-3-yl)carbamoyl)-4′-methoxy-[1,1′-biphenyl]-3-yl)-2-(tetrahydro-2H-pyran-4-carboxamido)acetic acid] as the compound, how does the EC50 read?
Answer: 0.008 µM

Question: For COc1ccc(-c2cc(C(O)C(=O)O)ccc2F)cc1C(=O)Nc1cc2c(cc1C(=O)Nc1ccc(F)c(C(F)(F)F)c1)CC2 (stereo not drawn) [Example 23, 2-(6-fluoro-3′-((4-((4-fluoro-3-(trifluoromethyl)phenyl)carbamoyl)bicyclo[4.2.0]octa-1,3,5-trien-3-yl)carbamoyl)-4′-methoxy-[1,1′-biphenyl]-3-yl)-2-hydroxyacetic acid], which EC50 is on record?
Answer: 0.66 µM

Same assay, conditions: HEK293 cells stably expressing human RXFP1; phenylcyclohexyl (tetraline) examples

Question: Which EC50 does the source give for COc1ccc(-c2noc(CCO)c2CCO)cc1C(=O)Nc1cc2c(cc1C(=O)Nc1ccc(F)c(C(F)(F)F)c1)CCCC2 [Example 16, 3-(5-(4,5-bis(2-hydroxyethyl)isoxazol-3-yl)-2-methoxybenzamido)-N-(4-fluoro-3-(trifluoromethyl)phenyl)-5,6,7,8-tetrahydronaphthalene-2-carboxamide] here?
Answer: 5 µM

Question: With COc1ccc(-c2cc([C@H](OC(=O)NC3CCC3)C(F)(F)F)ccc2F)cc1C(=O)Nc1cc2c(cc1C(=O)Nc1ccc(F)c(C(F)(F)F)c1)CCCC2=O [Example 17, (S)-2,2,2-trifluoro-1-(6-fluoro-3′-((3-(4-fluoro-3-(trifluoromethyl)phenyl)carbamoyl)-8-oxo-5,6,7,8-tetrahydronaphthalen-2-yl)carbamoyl)-4′-methoxy-[1,1′-biphenyl]-3-yl)ethyl cyclobutylcarbamate] as the compound, how does the EC50 read?
Answer: 0.022 µM

Question: With COc1ccc(-c2cc(C(=O)O)ccc2F)cc1C(=O)Nc1cc2c(cc1C(=O)Nc1ccc(F)c(C(F)(F)F)c1)CCCC2=O [Example 18, 6-fluoro-3′-((3-((4-fluoro-3-(trifluoromethyl)phenyl)carbamoyl)-8-oxo-5,6,7,8-tetrahydronaphthalen-2-yl)carbamoyl)-4′-methoxy-[1,1′-biphenyl]-3-carboxylic acid] as the compound, how does the EC50 read?
Answer: 1.1 µM

Question: Which EC50 does the source give for COc1ccc(-c2cnn(CC(=O)O)c2)cc1C(=O)Nc1cc2c(cc1C(=O)Nc1ccc(F)c(C(F)(F)F)c1)CCCC2 [Example 19, 2-(4-(3-((3-((4-fluoro-3-(trifluoromethyl)phenyl)carbamoyl)-5,6,7,8-tetrahydronaphthalen-2-yl)carbamoyl)-4-methoxyphenyl)-1H-pyrazol-1-yl)acetic acid] here?
Answer: 1.3 µM

Question: Which EC50 does the source give for COc1ccc(N2CCCS2(=O)=O)cc1C(=O)Nc1cc2c(cc1C(=O)Nc1ccc(F)c(C(F)(F)F)c1)CCCC2 [Example 20, 3-(5-(1,1-dioxidoisothiazolidin-2-yl)-2-methoxybenzamido)-N-(4-fluoro-3-(trifluoromethyl)-phenyl)-5,6,7,8-tetrahydronaphthalene-2-carboxamide] here?
Answer: 2.2 µM

Same assay, conditions: HEK293 cells stably expressing human RXFP1; phenylcyclopentyl examples

Question: Which EC50 does the source give for COc1ccc(-c2cc(C(=O)O)ccc2F)cc1C(=O)Nc1cc2c(cc1C(=O)Nc1ccc(F)c(C(F)(F)F)c1)CCC2 [Example 24, 6-fluoro-3′-((6-((4-fluoro-3-(trifluoromethyl)phenyl)carbamoyl)-2,3-dihydro-1H-inden-5-yl)carbamoyl)-4′-methoxy-[1,1′-biphenyl]-3-carboxylic acid] here?
Answer: 3.44 µM

Question: For COc1ccc(-c2cc(C(NC(=O)C3CCOCC3)C(=O)O)ccc2F)cc1C(=O)Nc1cc2c(cc1C(=O)Nc1ccc(F)c(C(F)(F)F)c1)CCC2 (stereo not drawn) [Example 25, 2-(6-fluoro-3′-((6-((4-fluoro-3-(trifluoromethyl)phenyl)carbamoyl)-2,3-dihydro-1H-inden-5-yl)carbamoyl)-4′-methoxy-[1,1′-biphenyl]-3-yl)-2-(tetrahydro-2H-pyran-4-carboxamido)acetic acid], which EC50 is on record?
Answer: 0.011 µM

Question: For COc1ccc(-c2cc(C(=O)O)ccc2F)cc1C(=O)Nc1cc2c(cc1C(=O)Nc1ccc(F)c(C(F)(F)F)c1)CCC2=O [Example 26, 6-fluoro-3′-((6-((4-fluoro-3-(trifluoromethyl)phenyl)carbamoyl)-3-oxo-2,3-dihydro-1H-inden-5-yl)carbamoyl)-4′-methoxy-[1,1′-biphenyl]-3-carboxylic acid], which EC50 is on record?
Answer: 0.23 µM
